In BindingDB's records for doi:10.1002/cbic.201600267 (Fairfield University, 2016):

Biological target: Beta-galactosidase (Escherichia coli (strain K12), UniProt P00722)
Experiment: beta-Galactosidase Assay
Conditions: 30 °C
Description: Enzymatic activity of beta-galactosidase from Escherichia coli (1.2 x 10^-10 M) was measured using the colorimetric substrate ortho-nitrophenyl-b-galactoside ([ONPG]: 2500, 2000, 1500, 1000, 500, 250, 125 uM) in Z-Buffer (100 mM sodium phosphate at pH = 7, 10 mM KCl, 1 mM MgSO4) to which was added fresh 50 mM beta-mercaptoethanol at 30 °C. In a 96-well plate were combined a 5x stock solution of Z-buffer (containing 250 mM beta-mercaptoethanol) and 5x stock solutions of ONPG. Samples were adjusted to a final volume of 180 uL with water. Samples were equilibrated at 30 °C for 5 minutes on a Synergy H1 microplate reader. A 10x stock solution of enzyme (20 uL) was then injected into each well and the production of 2-nitrophenol was quantified at 410 nm over a period of 10 minutes.

Chain of Beta-galactosidase (P00722 whole entry): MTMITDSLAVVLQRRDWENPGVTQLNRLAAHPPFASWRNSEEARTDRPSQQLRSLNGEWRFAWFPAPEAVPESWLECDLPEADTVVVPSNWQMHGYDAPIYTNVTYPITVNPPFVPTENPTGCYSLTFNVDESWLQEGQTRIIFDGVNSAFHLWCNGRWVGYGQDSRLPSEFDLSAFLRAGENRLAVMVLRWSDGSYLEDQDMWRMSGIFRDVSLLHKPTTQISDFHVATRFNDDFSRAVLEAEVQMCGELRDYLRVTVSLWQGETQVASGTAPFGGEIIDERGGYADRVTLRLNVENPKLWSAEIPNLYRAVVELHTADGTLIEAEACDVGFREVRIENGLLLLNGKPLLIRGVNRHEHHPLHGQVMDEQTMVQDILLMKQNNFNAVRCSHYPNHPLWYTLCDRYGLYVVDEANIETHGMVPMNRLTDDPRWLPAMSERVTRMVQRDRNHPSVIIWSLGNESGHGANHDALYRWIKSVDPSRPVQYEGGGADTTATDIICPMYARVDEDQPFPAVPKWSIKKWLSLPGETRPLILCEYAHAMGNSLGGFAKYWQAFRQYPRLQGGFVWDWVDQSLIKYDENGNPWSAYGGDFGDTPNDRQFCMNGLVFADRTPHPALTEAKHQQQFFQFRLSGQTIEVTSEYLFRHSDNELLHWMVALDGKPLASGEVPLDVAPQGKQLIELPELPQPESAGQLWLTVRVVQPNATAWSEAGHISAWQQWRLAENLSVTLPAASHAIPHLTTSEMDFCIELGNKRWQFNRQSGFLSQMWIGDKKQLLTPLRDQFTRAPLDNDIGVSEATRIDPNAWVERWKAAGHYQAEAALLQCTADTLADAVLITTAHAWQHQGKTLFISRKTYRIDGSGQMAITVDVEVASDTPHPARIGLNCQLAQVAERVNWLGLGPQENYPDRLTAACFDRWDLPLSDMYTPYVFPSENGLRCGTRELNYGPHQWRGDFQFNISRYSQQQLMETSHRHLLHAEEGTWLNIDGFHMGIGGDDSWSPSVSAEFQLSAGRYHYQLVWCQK

SMILES | Ki [µM]
CC(C)S[C@@H]1O[C@H](CO)[C@H](O)[C@H](O)[C@H]1O [IPTG] | 76
O=C(NCCOCCOCCOCCNC(=O)c1ccc(C(=O)OCCS[C@@H]2O[C@H](CO)[C@H](O)[C@H](O)[C@H]2O)c(C(c2ccccc2)c2ccccc2)c1)c1ccc(C(=O)c2ccccc2)cc1 [β-gal inhibitor, 13] | 3
O=C(NCCOCCOCCOCCNC(=O)c1ccc(C(=O)OCCOCCS[C@@H]2O[C@H](CO)[C@H](O)[C@H](O)[C@H]2O)c(C(c2ccccc2)c2ccccc2)c1)c1ccc(C(=O)c2ccccc2)cc1 [β-gal inhibitor, 14] | 3.9
O=C(NCCOCCOCCOCCNC(=O)c1ccc(C(=O)OCCOCCOCCOCCS[C@@H]2O[C@H](CO)[C@H](O)[C@H](O)[C@H]2O)c(C(c2ccccc2)c2ccccc2)c1)c1ccc(C(=O)c2ccccc2)cc1 [β-gal inhibitor, 15] | 5.9
